ChEMBL document CHEMBL1201862, “PubChem BioAssay data set” (2004)
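Tested at 5 concentrations; 48 h exposure; 96-well plates; endpoints linearly interpolated, else capped at highest concentration. GI50 marks 50% less growth.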 Activity calls are given as the source filed them. No stated cut-off is given here; in the data, active = GI50 up to about 1.1 µM and inactive = higher.

Assays:
Test in all cases: DTP human tumour cell line panel, 48 h
EKVX = tested on: EKVX
HCT-15 = tested on: HCT-15
HOP-62 = tested on: HOP-62
Hs-578T = tested on: Hs-578T
K562 = tested on: K562
MOLT-4 = tested on: MOLT-4
NCI-H226 = tested on: NCI-H226
NCI-H522 = tested on: NCI-H522
OVCAR-8 = tested on: OVCAR-8
RXF 393 = tested on: RXF 393
SF-295 = tested on: SF-295
SK-MEL-5 = tested on: SK-MEL-5
SNB-75 = tested on: SNB-75
SR = tested on: SR
T47D = tested on: T47D
U-251 = tested on: U-251
Malme-3M = tested on: Malme-3M
RPMI-8226 = tested on: RPMI-8226
SNB-19 = tested on: SNB-19

Compound: CCOC(=O)c1[nH]cc(C)c1-c1ccc2c(-c3ccccc3)nc3ccccc3n12
- GI50 (EKVX): 3.82 µM (inactive)
- GI50 (HCT-15): 3.55 µM
- GI50 (HOP-62): 5.42 µM (inactive)
- GI50 (Hs-578T): 2 µM (inactive)
- GI50 (K562): 3.34 µM (inactive)
- GI50 (MOLT-4): 2.31 µM (inactive)
- GI50 (NCI-H226): 5.22 µM (inactive)
- GI50 (NCI-H522): 1.53 µM (inactive)
- GI50 (OVCAR-8): 4.25 µM (inactive)
- GI50 (RXF 393): 2.03 µM (inactive)
- GI50 (SF-295): 3.52 µM (inactive)
- GI50 (SK-MEL-5): 2.37 µM (inactive)
- GI50 (SNB-75): 1.85 µM (inactive)
- GI50 (SR): 1.62 µM (inactive)
- GI50 (T47D): 4.43 µM (inactive)
- GI50 (U-251): 3.01 µM (inactive)

Compound: CCOC(=O)c1cc(C)n(CN(CCO)Cn2nc(C(=O)OCC)cc2C)n1
- GI50 (EKVX): 34.2 µM (inactive)
- GI50 (HCT-15): 21.5 µM
- GI50 (HOP-62): 25.9 µM (inactive)
- GI50 (Hs-578T): 97.7 µM (inactive)
- GI50 (K562): 26.9 µM (inactive)
- GI50 (MOLT-4): 31.8 µM (inactive)
- GI50 (Malme-3M): 27.1 µM (inactive)
- GI50 (NCI-H522): 22.6 µM (inactive)
- GI50 (OVCAR-8): 22.7 µM (inactive)
- GI50 (RPMI-8226): 19.9 µM (inactive)
- GI50 (RXF 393): 19.3 µM (inactive)
- GI50 (SF-295): > 100 µM (inactive)
- GI50 (SK-MEL-5): 37.2 µM (inactive)
- GI50 (SNB-19): 52.4 µM (inactive)
- GI50 (SR): 28.6 µM (inactive)
- GI50 (T47D): 24.5 µM (inactive)
- GI50 (U-251): 35.3 µM (inactive)

Compound: COC(=O)NC1(NC(=O)OC)NC(=O)c2ccccc2N1
- GI50 (EKVX): > 100 µM (inactive)
- GI50 (HCT-15): 63.5 µM
- GI50 (HOP-62): > 100 µM (inactive)
- GI50 (Hs-578T): > 100 µM (inactive)
- GI50 (K562): > 100 µM (inactive)
- GI50 (MOLT-4): > 100 µM (inactive)
- GI50 (Malme-3M): > 100 µM (inactive)
- GI50 (NCI-H226): > 100 µM (inactive)
- GI50 (NCI-H522): > 100 µM (inactive)
- GI50 (OVCAR-8): > 100 µM (inactive)
- GI50 (SF-295): 36.5 µM (inactive)
- GI50 (SK-MEL-5): > 100 µM (inactive)
- GI50 (SNB-19): > 100 µM (inactive)
- GI50 (SNB-75): 36 µM (inactive)
- GI50 (SR): > 100 µM (inactive)
- GI50 (T47D): > 100 µM (inactive)

Compound: CC1=NN(c2cccc(Cl)c2)C2(SCC(=O)N2c2nc3ccccc3s2)/C1=C\c1ccccc1O (stereo not drawn)
- GI50 (EKVX): 30.5 µM (inactive)
- GI50 (HCT-15): 14.6 µM
- GI50 (HOP-62): 20.9 µM (inactive)
- GI50 (Hs-578T): 27.8 µM (inactive)
- GI50 (K562): 5.65 µM (inactive)
- GI50 (MOLT-4): 11.9 µM (inactive)
- GI50 (NCI-H226): 34.3 µM (inactive)
- GI50 (NCI-H522): 19.8 µM (inactive)
- GI50 (OVCAR-8): 18.1 µM (inactive)
- GI50 (RPMI-8226): 11.9 µM (inactive)
- GI50 (RXF 393): 17 µM (inactive)
- GI50 (SF-295): 25.8 µM (inactive)
- GI50 (SK-MEL-5): 13.4 µM (inactive)
- GI50 (SR): 13.7 µM (inactive)
- GI50 (T47D): 3.99 µM (inactive)
- GI50 (U-251): 19.2 µM (inactive)

Compound: CC1(C=O)CC(CCc2ccccc2)NC1Cc1ccc(O)cc1 (stereo not drawn)
- GI50 (EKVX): 15.2 µM (inactive)
- GI50 (HCT-15): 21.3 µM
- GI50 (HOP-62): 18.6 µM (inactive)
- GI50 (Hs-578T): 19.5 µM (inactive)
- GI50 (K562): 16.7 µM (inactive)
- GI50 (MOLT-4): 14.1 µM (inactive)
- GI50 (NCI-H226): 15.5 µM (inactive)
- GI50 (NCI-H522): 19.4 µM (inactive)
- GI50 (OVCAR-8): 21 µM (inactive)
- GI50 (RPMI-8226): 16.2 µM (inactive)
- GI50 (RXF 393): 15.7 µM (inactive)
- GI50 (SF-295): 17.7 µM (inactive)
- GI50 (SK-MEL-5): 15.6 µM (inactive)
- GI50 (SNB-19): 14.5 µM (inactive)
- GI50 (SNB-75): 14.7 µM (inactive)
- GI50 (SR): 12 µM (inactive)
- GI50 (T47D): 15.8 µM (inactive)
- GI50 (U-251): 13.7 µM (inactive)
